According to patent US11077090B2, “Compounds and compositions and uses thereof” (Sunovion Pharmaceuticals Inc., priority 2016, dated 2021):
Like-named read-outs stand apart in the source and are kept apart here.

Tested on: compound-treated mice
Test: Neuropharmacological assay (SmartCube): behavioral activity signature and minimal effective dose
Assay type: in vivo
Conditions: for minimal effective dose: Mus musculus, ip; for AD: ADHD (probability of activity signature) / AG: analgesic (probability of activity signature) / AX: anxiolytic (probability of activity signature) / CE: cognitive enhancer (probability of activity signature) / DP: anti-depressant (probability of activity signature) / MS: mood stabilizer (probability of activity signature) / PS: anti-psychotic (probability of activity signature) / SD: sedative hypnotic (probability of activity signature) / UN: uncharacterized CNS activity (probability of activity signature): i.p. 15 min before test, most efficacious dose(s)
How it was run: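 Mice dosed i.p. 15 min before test, compound in N-methyl-2-pyrrolidone/PEG/propylene glycol, 3 doses; video-captured behavior matched to reference-drug signatures, giving per-class probabilities at most efficacious dose. MED from doses typically 0.3–30 mpk, defined as lowest dose with ≥50% total activity.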

[1] = MED = dose having 50% or more total activity, read-out: Potency: minimal effective dose (MED)
[2] = MED = dose having 50% or more total activity, read-out: Potency: minimal effective dose (MED), binned

Row | Compound | minimal effective dose [1] [mg/kg] | AD: ADHD (probability of activity signature) | AG: analgesic (probability of activity signature) | AX: anxiolytic (probability of activity signature) | CE: cognitive enhancer (probability of activity signature) | DP: anti-depressant (probability of activity signature) | MS: mood stabilizer (probability of activity signature) | PS: anti-psychotic (probability of activity signature) | SD: sedative hypnotic (probability of activity signature) | UN: uncharacterized CNS activity (probability of activity signature) | Potency: minimal effective dose (MED), binned (MED = dose having 50% or more total activity) | minimal effective dose [2] [mg/kg]
1 | N[C@@H]1COCc2ccc(Cl)c(Cl)c21 (single isomer, unassigned) [Example 119] | < 3 | + (LOQ ≤ + <5%) | ++ (5% ≤ ++ <25%) | +++ (25% ≤ +++ <50%) | ++ (5% ≤ ++ <25%) | ++ (5% ≤ ++ <25%) | + (LOQ ≤ + <5%) | ++ (5% ≤ ++ <25%) | ++ (5% ≤ ++ <25%) | ++++ (50% ≤ ++++) |  | 
2 | Cl.NC1COCc2ccc3c(c21)C1CCC3C1 (single isomer, unassigned) [Example 163] |  | + (LOQ ≤ + <5%) | ++ (5% ≤ ++ <25%) | ++ (5% ≤ ++ <25%) | ++ (5% ≤ ++ <25%) | ++ (5% ≤ ++ <25%) | + (LOQ ≤ + <5%) | +++ (25% ≤ +++ <50%) | ++ (5% ≤ ++ <25%) | +++ (25% ≤ +++ <50%) | B (>3 to 10 mpk) | 
3 | Cc1cc(Cl)c2c(c1)C(N)COC2.Cl (stereo not drawn) [Example 49, 8-Chloro-6-methylisochroman-4-amine hydrochloride] | 3 to 10 | + (LOQ ≤ + <5%) | ++ (5% ≤ ++ <25%) | ++ (5% ≤ ++ <25%) | ++ (5% ≤ ++ <25%) | ++ (5% ≤ ++ <25%) | + (LOQ ≤ + <5%) | ++ (5% ≤ ++ <25%) | ++ (5% ≤ ++ <25%) | ++++ (50% ≤ ++++) |  | 
4 | C[C@@H]1OC[C@@H](N)c2ccccc21.Cl (relative stereo) [Example 105, trans-1-Methylisochroman-4-amine hydrochloride] | 10 to 30 | + (LOQ ≤ + <5%) | ++ (5% ≤ ++ <25%) | ++ (5% ≤ ++ <25%) | ++ (5% ≤ ++ <25%) | ++ (5% ≤ ++ <25%) | ++ (5% ≤ ++ <25%) | ++ (5% ≤ ++ <25%) | + (LOQ ≤ + <5%) | +++ (25% ≤ +++ <50%) |  | 
5 | Cl.NC1CCOCc2ccccc21 (stereo not drawn) [Example 33, 1,3,4,5-Tetrahydrobenzo[c]oxepin-5-amine hydrochloride] | 10 to 30 | + (LOQ ≤ + <5%) | ++ (5% ≤ ++ <25%) | ++ (5% ≤ ++ <25%) | ++ (5% ≤ ++ <25%) | + (LOQ ≤ + <5%) | + (LOQ ≤ + <5%) | ++ (5% ≤ ++ <25%) | + (LOQ ≤ + <5%) | +++ (25% ≤ +++ <50%) |  | 
6 | Cc1ccc2c(c1)[C@H](N)CCOC2 (single isomer, unassigned) [Example 115] | 3 to 10 | + (LOQ ≤ + <5%) | ++ (5% ≤ ++ <25%) | ++ (5% ≤ ++ <25%) | ++ (5% ≤ ++ <25%) | ++ (5% ≤ ++ <25%) | + (LOQ ≤ + <5%) | +++ (25% ≤ +++ <50%) | ++ (5% ≤ ++ <25%) | +++ (25% ≤ +++ <50%) |  | 
7 | Cc1ccc2c(c1)CO[C@H](C)[C@H]2N.Cl [Example 96] | < 3 | + (LOQ ≤ + <5%) | ++ (5% ≤ ++ <25%) | +++ (25% ≤ +++ <50%) | ++ (5% ≤ ++ <25%) | ++ (5% ≤ ++ <25%) | + (LOQ ≤ + <5%) | ++ (5% ≤ ++ <25%) | + (LOQ ≤ + <5%) | +++ (25% ≤ +++ <50%) |  | 
8 | COc1ccc2c(c1)[C@H](N)[C@H](C)OC2 (single isomer, unassigned) [Example 173] |  | + (LOQ ≤ + <5%) | ++ (5% ≤ ++ <25%) | ++ (5% ≤ ++ <25%) | ++ (5% ≤ ++ <25%) | + (LOQ ≤ + <5%) | + (LOQ ≤ + <5%) | + (LOQ ≤ + <5%) | + (LOQ ≤ + <5%) | ++++ (50% ≤ ++++) |  | 3 to 10
9 | CN[C@H]1COCc2c(Cl)cccc21 (single isomer, unassigned) [Example 150] | 3 to 10 | + (LOQ ≤ + <5%) | ++ (5% ≤ ++ <25%) | ++ (5% ≤ ++ <25%) | + (LOQ ≤ + <5%) | + (LOQ ≤ + <5%) | + (LOQ ≤ + <5%) | ++ (5% ≤ ++ <25%) | + (LOQ ≤ + <5%) | ++++ (50% ≤ ++++) |  | 
10 | Cl.NC1CCOCc2cc(Cl)ccc21 (stereo not drawn) [Example 38] | 10 to 30 | + (LOQ ≤ + <5%) | ++ (5% ≤ ++ <25%) | ++ (5% ≤ ++ <25%) | + (LOQ ≤ + <5%) | ++ (5% ≤ ++ <25%) | + (LOQ ≤ + <5%) | ++ (5% ≤ ++ <25%) | + (LOQ ≤ + <5%) | +++ (25% ≤ +++ <50%) |  | 
11 | Cc1ccc2c(c1C)C(N(C)C)COC2.Cl (stereo not drawn) [Example 61] | 10 to 30 | + (LOQ ≤ + <5%) | ++ (5% ≤ ++ <25%) | ++ (5% ≤ ++ <25%) | ++ (5% ≤ ++ <25%) | + (LOQ ≤ + <5%) | + (LOQ ≤ + <5%) | ++ (5% ≤ ++ <25%) | + (LOQ ≤ + <5%) | ++++ (50% ≤ ++++) |  | 
12 | Cc1ccc2c(c1)COCC2N.Cl (stereo not drawn) [Example 4] | 10 to 30 | + (LOQ ≤ + <5%) | ++ (5% ≤ ++ <25%) | +++ (25% ≤ +++ <50%) | ++ (5% ≤ ++ <25%) | ++ (5% ≤ ++ <25%) | + (LOQ ≤ + <5%) | ++ (5% ≤ ++ <25%) | ++ (5% ≤ ++ <25%) | + (LOQ ≤ + <5%) |  | 
13 | CCN(C)C(=O)Oc1ccc2c(c1)[C@H](N)[C@@H](C)OC2.Cl [Example 282] |  | + (LOQ ≤ + <5%) | + (LOQ ≤ + <5%) | + (LOQ ≤ + <5%) | + (LOQ ≤ + <5%) | + (LOQ ≤ + <5%) | + (LOQ ≤ + <5%) | + (LOQ ≤ + <5%) | ++ (5% ≤ ++ <25%) | + (LOQ ≤ + <5%) |  | > 30
14 | Cl.NC1COCc2cc(Cl)ccc21 (stereo not drawn) [Example 2] | 10 to 30 | + (LOQ ≤ + <5%) | ++ (5% ≤ ++ <25%) | ++ (5% ≤ ++ <25%) | + (LOQ ≤ + <5%) | + (LOQ ≤ + <5%) | + (LOQ ≤ + <5%) | + (LOQ ≤ + <5%) | + (LOQ ≤ + <5%) | +++ (25% ≤ +++ <50%) |  | 
15 | COc1ccc2c(c1)COCC2N.Cl (stereo not drawn) [Example 14] | 10 to 30 | + (LOQ ≤ + <5%) | ++ (5% ≤ ++ <25%) | ++ (5% ≤ ++ <25%) | + (LOQ ≤ + <5%) | ++ (5% ≤ ++ <25%) | + (LOQ ≤ + <5%) | + (LOQ ≤ + <5%) | + (LOQ ≤ + <5%) | ++++ (50% ≤ ++++) |  | 
